# Test results taken from patent US6503943B1, “Platinum complex, its preparation and therapeutic application” (priority 1998, dated 2003).
# “And” between values parts separate entries of the source, which are not always exact repeats. Equal values may be shown once.
# Assays:
# [1] = system: leucaemia L1210; test: Antitumor effect at animals with leucaemia L1210, single administration (Example 4); type: in vivo, mice DBA2
# [2] = system: leucaemia L1210; test: Antitumor effect at animals with leucaemia L1210, intermitent administration 3x (Example 5); type: in vivo, mice DBA2; details: for Survival (in % of control) / Survival time, Geom. mean: 1st, 5th and 9th day
# [3] = system: leucaemia L1210; test: Antitumor effect at animals with leucaemia L1210, continual versus intermitent regimen (Example 6); type: in vivo, mice DBA2
# [4] = system: leucaemia L1210; test: Antitumor effect at animals with leucaemia L1210, continual regimen (Example 7); type: in vivo, mice DBA2; details: for Survival (in % of control) / Survival time, Geom. mean: 1th-9th day
# [5] = system: Gardner lymphosarcoma; test: Antitumor effect at animals with solid form of Gardner lymphosarcoma (Example 8); type: in vivo, mice C3H; details: for Tumor mass (%) of control / Tumor mass, Arithm. mean: 5th day, tumors weighed 14th day
# [6] = system: mammal adenocarcinoma MC2111; test: Antitumor effect at animals with solid form of mammal adenocarcinoma MC2111 (Example 9); type: in vivo, mice DBA1; details: for Tumor mass (%) of control / Tumor mass, Arithm. mean: 5th-13 day, tumor size 14th day, mass from regression
# [7] = system: ascitic form of Ehrlich tumor (ATE); test: Antitumor effect at animals with ascitic form of Ehrlich tumor (ATE) (Example 10); type: in vivo, mice ICR; details: for Survival (in % of control) / Survival time, Geom. mean / Tumor mass (%) of control / Tumor mass, Arithm. mean: 1st-9th day; for Tumor mass (%) of control / Tumor mass, Arithm. mean: dissection 10th day
# [8] = system: ascitic form of Ehrlich tumor (ATE); test: Antitumor effect at animals with ascitic form of Ehrlich tumor (ATE) (Example 11);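 on all read-outs here: half of each dose group killed on day 10, tumor mass taken as animal mass lost on ascites aspiration, ascitocrit by microhematocrit centrifuge, rest followed daily for survival versus reference group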; details: for Survival (in % of control) / Survival time, Geom. mean / Total ascitocrit (%) of control / Total ascitocrit (mass of cell fraction of a tumor), Arithm. mean / Tumor mass (%) of control / Tumor mass, Arithm. mean: 1th-9th day; for Total ascitocrit (%) of control / Total ascitocrit (mass of cell fraction of a tumor), Arithm. mean / Tumor mass (%) of control / Tumor mass, Arithm. mean: dissection 10th day
# Method: After termination of application, one half of animals in each dosage group was destroyed at 10th day after inoculation in ether narcosis, the ascits were sucked out after laparotomy and the mass of a tumor at each of the animals was determined from the difference of mass before and after sucking out the ascit. Ascitocrit in ascitic liquor of single animals was determined on microhematocrit centrifuge in heparinized capillary tubes of 75 mm length. The value of “total ascitocrit”corresponding to a mass of cells in ascitic liquor has been determined from percentage of ascitocrit and mass of the tumor. Remaining animals were left for monitoring the survival time. In these animals, the survival time was monitored on daily basis. The dependence of the survival time value on the applied dose was evaluated in comparison with the reference group.
# The single estimated time points as biological responses were evaluated by a test of equivalence of two mean values (Student's t-test). Geometric mean was calculated from single values of survival time, arithmetic means were calculated from single values of tumor mass and total ascitocrit. Difference between mean values was evaluated by a test of equivalence of two mean values (Student's t-test) under presumption of normal probability distribution of mass values as well as of total ascitocrit values and of logarithmic/normal distribution of temporal values, all under presumption of possible unknown disseminations. Those diferences in mean values, whose values of a test criterium exceeded the critical value at the 5% and 1% significance level were evaluated as statistically significant and highly statistically significant, respectively.
# The optimum dosage has been calculated from values of survival time according to the proportional risk model of Cox (Carter et al., 1982). Parameters of Weinbull distribution and logarithmic transformation of introductory data were used for estimation of a basic and modified survival function from experimental data.
# [9] = 9 mg/kg/day as printed, middle dose group between 36 and 9, p.o. 3x, 1,5,9th day
# [10] = 9 mg/kg/day p.o. 3x, 1,5,9th day (lowest dose group)
# [11] = 12 mg/kg/day p.o. 9x, 1-9th day
# [12] = 36 mg/kg/day p.o. 3x, 1,5,9th day
compound,measurement,setting,value
"CC(=O)[O][Pt]([NH2])([Cl])([Cl])([NH]C1CCCCC1)[O]C(C)=O [LA-2, af-bis(acetato)-b-ammin-cd-dichloro-e-(cyclohexylamine)platinum (IV) complex]","Effect at the single oral dose of 10 mg/kg for IP-L 1210, in words",[1]; 10 mg/kg (30 mg/m^2) single oral dose,no effect
same,"Antitumor effect (survival time versus control), in words","[1]; mouse, in vivo",No effect has been proven
same,Survival (in % of control),"[1]; mouse, in vivo",63% and 85% and 81% and 94% and 99%
same,"Survival time, Geom. mean","[1]; mouse, in vivo",8.0 days and 10.7 days and 10.3 days and 11.9 days and 12.5 days
same,Survival (in % of control),[2]; 2 mg/kg/day p.o. 3x,>129%
same,"Survival time, Geom. mean",[2]; 2 mg/kg/day p.o. 3x,20.2 days
same,Survival (in % of control),[2]; 4 mg/kg/day p.o. 3x,118%
same,"Survival time, Geom. mean",[2]; 4 mg/kg/day p.o. 3x,18.5 days
same,Survival (in % of control),[2]; 8 mg/kg/day p.o. 3x,<148%
same,"Survival time, Geom. mean",[2]; 8 mg/kg/day p.o. 3x,23.2 days
same,Optimum dose as calculated according to Carter,[2]; intermitent oral administration 3x,10.96 mg/kg/day p.o.×3
same,Survival (in % of control),"[3]; 3 mg/kg/day p.o. 9x, 1-9th day",162%
same,"Survival time, Geom. mean","[3]; 3 mg/kg/day p.o. 9x, 1-9th day",18.7 days
same,Survival (in % of control),"[3]; 6 mg/kg/day p.o. 9x, 1-9th day",173%
same,"Survival time, Geom. mean","[3]; 6 mg/kg/day p.o. 9x, 1-9th day",20.0 days
same,Survival (in % of control),[3]; [9],160%
same,"Survival time, Geom. mean",[3]; [9],18.6 days
same,Survival (in % of control),[3]; [10],99%
same,"Survival time, Geom. mean",[3]; [10],11.4 days
same,Survival (in % of control),[3]; [11],99%
same,"Survival time, Geom. mean",[3]; [11],11.5 days
same,Survival (in % of control),[3]; [12],130%
same,"Survival time, Geom. mean",[3]; [12],15.1 days
same,"Evaluation of antitumor effect (survival time versus control), in words","[3]; LA-12 6 mg/kg p.o.×9, Platidiam 8 and 4 mg/kg s.c.×1, LA-2 any of the dosage groups",antitumor uneffective
same,Survival (in % of control),[4]; 3 mg/kg/day p.o. 9x,214%
same,"Survival time, Geom. mean",[4]; 3 mg/kg/day p.o. 9x,48.1 days
same,Increase of survival time value in comparison with the control group,[4]; 3 mg/kg/day p.o.×9,114%
same,Survival (in % of control),[4]; 6 mg/kg/day p.o. 9x,137%
same,"Survival time, Geom. mean",[4]; 6 mg/kg/day p.o. 9x,30.8 days
same,Survival (in % of control),[4]; 12 mg/kg/day p.o. 9x,108%
same,"Survival time, Geom. mean",[4]; 12 mg/kg/day p.o. 9x,24.4 days
same,Tumor mass (%) of control,[5]; 2 mg/kg p.o. 1x,90%
same,"Tumor mass, Arithm. mean",[5]; 2 mg/kg p.o. 1x,5.61 g
same,Tumor mass (%) of control,[5]; 8 mg/kg p.o. 1x,99%
same,"Tumor mass, Arithm. mean",[5]; 8 mg/kg p.o. 1x,6.19 g
same,Tumor mass (%) of control,[5]; 32 mg/kg p.o. 1x,103%
same,"Tumor mass, Arithm. mean",[5]; 32 mg/kg p.o. 1x,6.44 g
same,"Effect on average mass of a tumor, in words","[5]; single p.o. 32, 8 and 2 mg/kg",No effect has been observed
same,Tumor mass (%) of control,[6]; 3 mg/kg/day p.o. 9x,86%
same,"Tumor mass, Arithm. mean",[6]; 3 mg/kg/day p.o. 9x,4.00 g
same,Tumor mass (%) of control,[6]; 6 mg/kg/day p.o. 9x,83%
same,"Tumor mass, Arithm. mean",[6]; 6 mg/kg/day p.o. 9x,3.86 g
same,Tumor mass (%) of control,[6]; 12 mg/kg/day p.o. 9x,77%
same,"Tumor mass, Arithm. mean",[6]; 12 mg/kg/day p.o. 9x,3.59 g
same,Survival (in % of control),"[6]; mouse, in vivo",100% and 115% and 113%
same,"Survival time, Geom. mean","[6]; mouse, in vivo",21.7 days and 24.9 days and 24.5 days
same,"Evaluation of antitumor effect, in words","[6]; p.o.×9 12, 6, 3 mg/kg/day, Platidiam 8 and 4 mg/kg s.c. once",No effect was observed
same,Survival (in % of control),[7]; 3 mg/kg/day p.o. 9x,161%
same,"Survival time, Geom. mean",[7]; 3 mg/kg/day p.o. 9x,18.4 days
same,Tumor mass (%) of control,[7]; 3 mg/kg/day p.o. 9x,119%
same,"Tumor mass, Arithm. mean",[7]; 3 mg/kg/day p.o. 9x,3.17 g
same,Survival (in % of control),[7]; 6 mg/kg/day p.o. 9x,156%
same,"Survival time, Geom. mean",[7]; 6 mg/kg/day p.o. 9x,17.9 days
same,Tumor mass (%) of control,[7]; 6 mg/kg/day p.o. 9x,80%
same,"Tumor mass, Arithm. mean",[7]; 6 mg/kg/day p.o. 9x,2.13 g
same,Survival (in % of control),[7]; 12 mg/kg/day p.o. 9x,110%
same,"Survival time, Geom. mean",[7]; 12 mg/kg/day p.o. 9x,12.6 days
same,Tumor mass (%) of control,[7]; 12 mg/kg/day p.o. 9x,79%
same,"Tumor mass, Arithm. mean",[7]; 12 mg/kg/day p.o. 9x,2.10 g
same,"Significance of mean survival time increase in comparison with untreated control (p≦0.01), in words",[7]; Tab. 7-2,do not
same,Survival (in % of control),[8]; 3 mg/kg/day p.o. 9x,114%
same,"Survival time, Geom. mean",[8]; 3 mg/kg/day p.o. 9x,10.1 days
same,Total ascitocrit (%) of control,[8]; 3 mg/kg/day p.o. 9x,108%
same,"Total ascitocrit (mass of cell fraction of a tumor), Arithm. mean",[8]; 3 mg/kg/day p.o. 9x,0.74 g
same,Tumor mass (%) of control,[8]; 3 mg/kg/day p.o. 9x,90%
same,"Tumor mass, Arithm. mean",[8]; 3 mg/kg/day p.o. 9x,3.53 g
same,"Survival time, Geom. mean",[8]; 6 mg/kg/day p.o. 9x,13.2 days
same,Total ascitocrit (%) of control,[8]; 6 mg/kg/day p.o. 9x,100%
same,"Total ascitocrit (mass of cell fraction of a tumor), Arithm. mean",[8]; 6 mg/kg/day p.o. 9x,0.69 g
same,Tumor mass (%) of control,[8]; 6 mg/kg/day p.o. 9x,59%
same,"Tumor mass, Arithm. mean",[8]; 6 mg/kg/day p.o. 9x,2.32 g
same,Survival (in % of control),[8]; 12 mg/kg/day p.o. 9x,111%
same,"Survival time, Geom. mean",[8]; 12 mg/kg/day p.o. 9x,9.9 days
same,Total ascitocrit (%) of control,[8]; 12 mg/kg/day p.o. 9x,95%
same,"Total ascitocrit (mass of cell fraction of a tumor), Arithm. mean",[8]; 12 mg/kg/day p.o. 9x,0.65 g
same,Tumor mass (%) of control,[8]; 12 mg/kg/day p.o. 9x,70%
same,"Tumor mass, Arithm. mean",[8]; 12 mg/kg/day p.o. 9x,2.74 g
same,"Evaluation of antitumor effect (survival time versus control), in words","[8]; p.o.×9, Platidiam 8 and 4 mg/kg s.c.×1, Tab. 8.1",didnot increase the survival time statistically significant
